These results are taken from PubChem BioAssay (NCI).

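Where inhibition never reached the appropriate level, the endpoint shown equals the highest concentration tested. Otherwise, values were interpolated linearly from a five-concentration, 48-hour dose response in 96-well plates. GI50: concentration for 50% inhibition of growth. At the TGI there is no net growth.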

Holding throughout (assay): growth of human tumour cells (NCI), 48 h
For experiment [1], the system named is T-47D breast.
For experiment [2], the system named is MDA-MB-231 breast.
The subject of experiment [3] is SK-OV-3 ovarian.
Experiment [4] relates to HCC-2998 colon.
Experiment [5] deals with BT-549 breast.
In experiment [6] the test system is MCF7 breast.
For experiment [7], the system named is K-562 leukemia.
For experiment [8], the system named is EKVX NSCLC.
In experiment [9] the test system is NCI-H23 lung.
Experiment [10] has as its system LOX IMVI melanoma.

For the compound `COc1cc(-c2cc(-c3ccc(Nc4ccnc5cc(Cl)ccc45)cc3)nc(N3CCOCC3)n2)cc(OC)c1OC`, the GI50 in experiment [1] was 2.06 µM; in [2] it was 1.81 µM; in [3], 14.9 µM; in experiment [4], 3.64 µM; in experiment [5] it was 2.57 µM; in experiment [6], 0.755 µM. Further, the GI50 in [7] was 0.882 µM; in [8], 2.62 µM; in [9] it was 2.2 µM. Moreover, the TGI in experiment [1] was 4.65 µM; in experiment [2], 4 µM; in experiment [3] it was 31.7 µM; in [4], > 100 µM; in [5], 7.19 µM; in experiment [6], 3.26 µM. Moreover, the TGI came out at 10.4 µM in experiment [7], 9.73 µM in experiment [8] and 6.22 µM in experiment [9].

In the case of `NC1=NC(c2ccc(Cl)cc2)N(c2ccc(S(N)(=O)=O)cc2)C(N)=N1` (stereo unspecified), the TGI in experiment [1], in [2], in experiment [3], in experiment [10], in experiment [5] and in experiment [6] was > 100 µM in each case. For the same compound, the TGI in experiment [7], in [8] and in experiment [9] was > 100 µM in each case.

`FC(F)(F)c1ccc(-c2cnc(-n3cc(COCCN4CCCCC4)nn3)nc2NC2CCCCCC2)cc1`: the GI50 in experiment [1] was 4.12 µM; in [2] it was 3.47 µM; in [3] it was 4.04 µM; in experiment [10], 3.89 µM; in experiment [4], 3.93 µM; in [5], 4.33 µM. Also, the GI50 is 3.21 µM in experiment [6], 1.75 µM in [7] and 3.8 µM in experiment [9]. Moreover, the TGI in experiment [1] was found to be 9.21 µM; in experiment [2], 6.86 µM; in experiment [3] it was 7.62 µM; in experiment [10], 7.88 µM; in [4], 7.44 µM; in experiment [5] it was 8.55 µM. Besides, the values for the TGI in [6], in [7] and in experiment [9] were 7.4 µM, 7.21 µM and 7.81 µM, respectively.

On to `Cc1cc(Nc2nc(-c3cccnc3)nc3ccccc23)n[nH]1`, for which the GI50 in experiment [1] was 2.02 µM; in [2] it was 17.3 µM; in experiment [3], 0.956 µM; in experiment [10] it was 0.712 µM; in experiment [4], 21.5 µM; in experiment [5], 4.24 µM. Further, the results for the GI50 in experiment [6], in experiment [7] and in experiment [9] were 1.28 µM, 3.07 µM and 5.16 µM, respectively. Moreover, the TGI was > 75.4 µM in [1]; > 100 µM in experiment [2]; > 100 µM in experiment [3]; 3.57 µM in experiment [10]; > 100 µM in experiment [4]; > 100 µM in [5]. Further, the TGI in experiment [6], in [7] and in [9] was > 100 µM each time.

Consider `COc1ccc(S(=O)(=O)NC2=NCCN2C(=S)SN2CCn3c2nsc3=S)cc1`, for which the GI50 was 18.3 µM in experiment [1]; 15 µM in experiment [2]; 15.5 µM in [10]; 21.4 µM in experiment [4]; 10.4 µM in experiment [5]; 12.4 µM in [6]. The GI50 in [7] was 28.1 µM; in experiment [8] it was 15.8 µM; in experiment [9] it was 22.9 µM. For the same compound, the TGI stood at 49.1 µM in experiment [1]; 36.9 µM in experiment [2]; 33.1 µM in experiment [10]; 37.9 µM in [4]; 23.5 µM in experiment [5]; 27.2 µM in [6]. Besides, the TGI is > 100 µM in experiment [7], 30.6 µM in experiment [8] and 55.7 µM in experiment [9].

`Nc1cc(O)ccc1N=Nc1ccc(-c2nc3ccccc3[nH]2)cc1`: the GI50 is 29.9 µM in experiment [1]; 68.7 µM in experiment [2]; > 100 µM in experiment [3]; 7.6 µM in experiment [10]; > 100 µM in experiment [5]; 23 µM in experiment [7]. Moreover, the GI50 in experiment [8] was 21 µM. The TGI in experiment [1] was > 100 µM; in [2], > 100 µM; in experiment [3], > 100 µM; in [10], 37.1 µM; in [5] it was > 100 µM; in [7], > 100 µM. The compound also showed a TGI in [8] of 92.1 µM.

Turning to `CC(C)(C)c1ccc(OC(=O)Nc2ccc(O)c(C(=O)O)c2)cc1`, the TGI in [1], in experiment [2], in experiment [3], in experiment [10], in experiment [5] and in experiment [6] was > 100 µM each time. Further, the TGI in experiment [7], in experiment [8] and in [9] was > 100 µM in each case.

On to `CCN1C(=O)CCCc2c1ccc(Nc1ncc(Cl)c(NC3[C@@H](C(N)=O)[C@@H]4C=C[C@H]3C4)n1)c2OC` (stereo partly specified), for which the GI50 is 1.91 µM in experiment [1]; 1.95 µM in experiment [2]; 2.39 µM in [3]; 0.774 µM in experiment [10]; 1.69 µM in experiment [4]; 3.61 µM in experiment [5]. Further, the GI50 in experiment [6] is 0.618 µM; in [7], 2.16 µM; in [9], 1.56 µM. Further, the TGI in [1] is 14.3 µM; in experiment [2] it was 14.4 µM; in experiment [3], 7.74 µM; in [10] it was 2.48 µM; in [4], 3.57 µM; in [5], 17.4 µM. Further, the TGI in experiment [6] is 6.7 µM; in experiment [7] it was > 74.6 µM; in [9], 9.47 µM.

In the case of `COc1cccc(CSCC(=O)O)c1`, the TGI in [1], in [2], in experiment [3], in [10], in experiment [5] and in experiment [6] was > 100 µM throughout. Besides, the TGI in [7], in experiment [8] and in [9] was > 100 µM each time.
